In the case of `O=C1C(=O)c2ccc(-c3ccccc3)cc2C2=C1SCC1(CCN(Cc3ccc(F)cc3)CC1)O2`, the melting point is reported as 197 to 198 °C. For `COc1cc(OC)nc(Nc2ncccc2C(=O)OCc2ccccc2)n1`, the melting point was 128 to 131 °C. `O=Cc1c(Cl)nc2ccc(Cl)cn12` gave a melting point of 165 to 166 °C. In the case of `Clc1ccc(C2(Cn3ccnc3)OCC(COc3ccc(-c4ccccc4)cc3)O2)c(Cl)c1` (centres undefined), the melting point is reported as 156 °C. In the case of `CCCN1NC(c2ccc(Cl)cc2)C2=C1C(=Cc1ccc(Cl)cc1)CSC2` (centres undefined), the melting point is reported as 192 to 194 °C. `Cc1ncc([N+](=O)[O-])cc1Nc1nccc(-c2ccccc2)n1` gave a melting point of 133 °C. Compound `CCOC(=O)c1cnn(-c2ccc(Cl)cc2)c1` has a melting point of 127 to 128 °C. `CCNC(=O)c1ccc(F)c(F)c1` showed a melting point of 94.1 to 96.2 °C. With `CCCOc1c(I)cc(C(=O)CCC(=O)c2cc(OC)c(OC)c(OC)c2)cc1OC` the melting point was 120 to 121 °C. `CCOC(=O)c1cnn2c(C=O)c(Cc3cccc(F)c3C)c(-c3ccccc3)c2c1Cl` showed a melting point of 110 to 111 °C. In the case of `O=C1NC(=O)C(C2C3CCCC32)O1` (centres undefined), the melting point is reported as 135 to 141 °C. For `CC(=Cc1ccc(O)cc1)C(=O)O`, the melting point was 204 to 205 °C. Compound `CC(C)n1nc(-c2sc(NC=O)nc2-c2ccccc2)ccc1=O` has a melting point of 232 to 234 °C. For `Cn1ncc(NCCN2CCC(c3noc4cc(F)ccc34)CC2)c(Cl)c1=O`, the melting point was 145 to 147 °C. Compound `O=C(CNC(=O)OCc1ccccc1)Nc1nnc(SCc2ccccc2)s1` has a melting point of 200 to 202 °C. With `CCC(CC)c1ccc(Cl)c2nc3n(c12)CCCCN3c1ncc(C(C)=O)cc1C` the melting point was 142 °C. With `Cn1c(C(F)(F)F)cc(=O)n(-c2ccc(OCc3ccc(Cl)cc3)cc2F)c1=O` the melting point was 134 to 135 °C. Work on `Fc1ccc(Oc2nccc(-c3c(-c4ccc(F)cc4)ncn3C3CCNCC3)n2)cc1` yielded a melting point of 186 to 187 °C. For `COc1ccc([C@H](Cc2ccncc2)c2ccccc2)cc1O`, the melting point was 158 to 159 °C. `Cc1cc(Oc2[nH]c(=O)[nH]c(=O)c2C(C)C)cc(C2OCCO2)c1` showed a melting point of 201 to 203 °C. For `CC(=O)OCC1SC(N2CCc3ccccc32)C(OC(C)=O)C(OC(C)=O)C1OC(C)=O` (centres undefined), the melting point was 163 to 165 °C. For `COc1c(CN2C(=O)c3ccccc3C2=O)n(C)c(=O)c2ccc(Cl)cc12`, the melting point was 248 to 249 °C. `O=C(CCn1ccnc1)c1ccc(Cl)cc1Cl` gave a melting point of 105 to 109 °C. `CC(C)(C)OC(=O)NCC(=O)NCc1ccc(Nc2n[nH]c3ncnc(Nc4cccc(Cl)c4)c23)cc1` gave a melting point of 205 °C. `Cc1sc(C(=O)O)c2c1-c1nn(Cc3ccccc3)cc1CC2` showed a melting point of 231 to 232 °C. With `CCCCc1cn(-c2ccccc2CC)c(=O)n1Cc1ccc(-c2ccccc2-c2nnn[nH]2)cc1` the melting point was 188 to 189 °C. In the case of `N=C(NCC(F)(F)F)NC(N)=S`, the melting point is reported as 164 to 166 °C. With `CCNC(=O)c1ccc(F)c2c1CC(N(CCCc1c[nH]c3ccc(F)cc13)C1CCC1)CO2` (centres undefined) the melting point was 130 °C. Work on `CCCCc1nc(Cl)c(CO)n1Cc1ccc(-c2ccccc2-c2nnn(C(c3ccccc3)(c3ccccc3)c3ccccc3)n2)cc1` yielded a melting point of 168 to 169 °C. `CC1(C)OC(=O)C(Sc2ccccc2)=C1c1ccc(S(C)(=O)=O)cc1` gave a melting point of 98 to 114 °C. `CCOC(=O)Cn1ncc2c(Br)c(OC)ccc21` gave a melting point of 106 to 107 °C. For `COc1c(Br)cc(Br)c(OC)c1C(=O)O`, the melting point was 108 to 110 °C. With `CCCCc1nc(CCC)n[nH]1` the melting point was 48.5 to 50 °C. With `N#Cc1ccc(OC2SCC(O)C(O)C2O)cn1` (centres undefined) the melting point was 179 to 180 °C. `CC(C)(CO)c1cc2c(cc1Cl)C=C(C(=O)O)C(C(F)(F)F)O2` (centres undefined) gave a melting point of 204 to 205 °C. With `Cc1nc(N2CCC(N(C)C)CC2)c2nc(-c3ccccc3)cc-2[nH]1` the melting point was 262 to 263 °C. Compound `O=c1ccccn1[C@@H]1c2cc(C(F)(F)F)ccc2OC(CF)(CF)[C@H]1O` (relative stereo) has a melting point of 210 to 212 °C. With `COC1=CC(C=C(C#N)C(=O)O)CC(OC)=C1OC` (centres undefined) the melting point was 102 to 105 °C. In the case of `CCCc1c(C(=O)NCc2ccc(-c3ccc(OCC(=O)O)cc3)cc2)cnn1-c1ccccc1`, the melting point is reported as 190 to 192 °C.
